Reference: publication PMC2213263 (The Journal of Experimental Medicine, 2005)

Tested on: PBMCs and HCV peptide-specific T cell lines from HCV-infected subjects
Type: cell-based, human

Substance	T cell response to peptide, in words	response to positive control
HSKRKCDEL	no detectable response	
phytohemagglutinin		uniformly positive
